Ends that are not written are not given here.
Assays:
[1] = molecular target: T1, purified H-2 D^b molecules (Mus musculus, UniProt P01899); assay: MHC peptide-binding assay, purified H-2 D^b; conditions: purified MHC, radiolabeled peptide competition; read-out: Binding affinity (IC50 nM) H2-D^b
T1 construct: made in house
Method: (§1) Briefly, 0.1-1 nM of radiolabeled peptide was co-incubated at room temperature with 1 μM to 1 nM of purified MHC in the presence of 1-3 μM human β2-microglobulin (Scripps Laboratories) and a mixture of protease inhibitors. After a 2 day incubation, binding of the radiolabeled peptide to the corresponding MHC class I molecule was determined by capturing MHC/peptide complexes on Lumitrac 600 microplates (Greiner Bio-One) coated with either the Y3 (anti-H-2 K^b) or 28-14-8S (anti-H-2 D^b, L^d and D^q) Ab, followed by measurement of bound counts per minute (cpm) using the TopCount microscintillation counter (Packard).

[2] = molecular target: T2, purified H-2 K^b molecules (Mus musculus, UniProt P01901); assay: MHC peptide-binding assay, purified H-2 K^b; conditions: purified MHC, radiolabeled peptide competition; read-out: Binding affinity (IC50 nM) H2-K^b
T2 construct: made in house
T2 sequence (P61769 21-119): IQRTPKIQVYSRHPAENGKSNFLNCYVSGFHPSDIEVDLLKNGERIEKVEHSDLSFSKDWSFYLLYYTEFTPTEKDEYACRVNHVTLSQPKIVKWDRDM
T2 sequence (P01901 22-369): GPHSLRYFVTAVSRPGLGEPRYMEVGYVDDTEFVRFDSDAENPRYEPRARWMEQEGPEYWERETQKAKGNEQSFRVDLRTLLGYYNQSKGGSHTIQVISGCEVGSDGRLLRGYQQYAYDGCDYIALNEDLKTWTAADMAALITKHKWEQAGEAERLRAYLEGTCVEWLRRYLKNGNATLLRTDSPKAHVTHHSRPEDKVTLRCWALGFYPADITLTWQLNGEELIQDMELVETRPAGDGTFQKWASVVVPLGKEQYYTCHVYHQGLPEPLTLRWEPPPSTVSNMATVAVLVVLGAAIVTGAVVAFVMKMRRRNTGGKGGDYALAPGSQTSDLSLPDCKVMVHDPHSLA
Method: as §1, with “MHC purification and quantitative assays to measure the binding affinity of peptides to purified H-2 K^b and H-2 D^b molecules were performed as previously described (Sidney et al., Curr Protoc Immunol 18:1813 2001); Vitiello et al., J Immunol 157:5555 (1996)). Briefly,” for “Briefly,”
To confirm the MHC class I restriction of the 12 identified epitopes, measurements were performed of their MHC binding capacity using purified K^b and D^b molecules in an in vitro binding assay. Seven of the 12 epitopes bound the predicted allele with either high or intermediate affinity, as indicated by an IC50 of <50 nM or <500 nM, respectively. The five remaining epitopes also bound with biologically relevant affinities in the 500-2000 nM range.

[3] = system: CD8^+ T cells; assay: TNF-α and CD107a staining after peptide re-stimulation; type: cell-based, wild-type or IFN-α/βR^−/− mice; conditions: splenocytes day 7 after S221 infection
Method: All Ab were purchased from eBioscience with the exception of anti-CD8α-PerCP and anti-CD107a-FITC which were obtained from BD Biosciences. RBC in blood were lysed using RBC lysis buffer (eBioscience). For surface staining, splenocytes or blood cells were washed, incubated with supernatant from 2.4G2-producing hybridoma cells to block Fc receptors, and labeled with anti-CD8α-PerCP, anti-CD44-APC, and anti-CD62L-PE. For intracellular cytokine staining, 10^6 splenocytes or 10^5 blood cells were plated in 96-well U-bottom plates and stimulated with individual DENV peptides (0.1 μg/ml) in the presence of brefeldin A (GolgiPlug, BD Biosciences) for 5 h. For CD107a staining, CD107a-FITC (or rat IgG2a-FITC) was added to the wells at the same time as the peptide. Cells were washed, incubated with 2.4G2 supernatant, labeled with anti-CD8α-PerCP, fixed and permeabilized using the BD Cytofix/Cytoperm Kit, and stained with anti-IFN-γ-APC and anti-TNF-α-PE. Samples were read on a FACS Caliber (BD Biosciences) and analyzed using FloJo software (Tree Star, Inc.)
Because polyfunctional CD8^+ T cell responses are associated with protection (Harari et al., Immunol Rev 211:236 (2006)), the phenotype of the DENV-specific CD8^+ T cells in wild-type and IFN-α/βR^−/− mice was studied in more detail by measuring CD107a expression (CD107a, or LAMP-1, is expressed on the cell surface upon degranulation) and TNF-α production for two of the DENV-specific CD8^+ T cell populations, as described above. To collect the data, splenocytes harvested from wild-type or IFN-α/βR^−/− mice 7 days after infection with 10^11 or 10^10 GE of S221, respectively, were re-stimulated in vitro with C51-59, NS4B99-107, or an irrelevant peptide. An anti-CD107a Ab was added for the duration of the stimulation. Cells were then stained for surface CD8, intracellular IFN-γ and TNF-α, and analyzed by flow cytometry.

T1 sequence (P61769 21-119): as the sequence (P61769 21-119) above
T1 sequence (P01899 25-362): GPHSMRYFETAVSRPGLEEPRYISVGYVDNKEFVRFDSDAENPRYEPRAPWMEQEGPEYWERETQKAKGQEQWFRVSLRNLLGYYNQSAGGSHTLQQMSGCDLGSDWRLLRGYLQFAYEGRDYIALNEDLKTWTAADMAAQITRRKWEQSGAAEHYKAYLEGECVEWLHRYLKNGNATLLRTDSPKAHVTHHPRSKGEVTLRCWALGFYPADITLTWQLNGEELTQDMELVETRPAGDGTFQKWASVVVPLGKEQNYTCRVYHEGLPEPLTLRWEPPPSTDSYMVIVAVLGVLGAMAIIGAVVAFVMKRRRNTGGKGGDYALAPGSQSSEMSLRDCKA

YSQVNPITL [NS4B99-107]
IC50 [1]: 1.3 nM | IC50 [2]: 1890 nM | CD107a surface expression (degranulation) [3]: expressed CD107a on the surface | TNF-α production by peptide-specific CD8^+ T cells [3]: produced TNF-α

Reference: patent US20110150914A1, “COMPOSITIONS AND METHODS FOR DENGUE VIRUS (DV) TREATMENT AND VACCINATION” (priority 2008, published 2011)
